ChEMBL document CHEMBL1671617, “Correlation of antimicrobial resistance with beta-lactamases, the OmpA-like porin, and efflux pumps in clinical isolates of Acinetobacter baumannii endemic to New York City” (2008)
In brackets after ≈: the same amount, converted by molar mass.

Legend:
Type in all cases: functional
[1] = tested on: Acinetobacter baumannii; assay: Antimicrobial activity against ISAba1 linked with the blaOXA-51-type beta-lactamase harboring Acinetobacter baumannii beta clonal group isolate 15 expressing ompA, adeB, adeM, aacA4, blaSHV-5 by Etest method
[2] = tested on: Acinetobacter baumannii; assay: Antimicrobial activity against Acinetobacter baumannii nu clonal group isolate 32 expressing ampC, ompA, adeB, adeM, aadB, aadA2 by Etest method
[3] = tested on: Acinetobacter baumannii; assay: Antimicrobial activity against Acinetobacter baumannii lambda clonal group isolate 27 expressing ampC, ompA, adeB, adeM, aadB, aadA1 by Etest method
[4] = tested on: Acinetobacter baumannii; assay: Antimicrobial activity against ISAba1 linked with the blaOXA-51-type beta-lactamase harboring Acinetobacter baumannii beta clonal group isolate 9 expressing ampC, ompA, adeB, adeM by Etest method
[5] = tested on: Acinetobacter baumannii; assay: Antimicrobial activity against ISAba1 linked with the blaOXA-51-type beta-lactamase harboring Acinetobacter baumannii beta clonal group isolate 12 expressing ompA, adeB, adeM, aacA4, aacC2, blaSHV-5 by Etest method
[6] = tested on: Acinetobacter baumannii; assay: Antimicrobial activity against ISAba1 linked with the blaOXA-51-type beta-lactamase harboring Acinetobacter baumannii beta clonal group isolate 16 expressing ompA, adeB, adeM, aacA4, blaSHV-5 by Etest method
[7] = tested on: Acinetobacter baumannii; assay: Antimicrobial activity against ISAba1 linked with the blaOXA-51-type beta-lactamase harboring Acinetobacter baumannii unique clonal group isolate 40 expressing ampC, ompA, adeB, adeM, aadA1, aacA4, aacC2, blaSHV-5 by Etest method
[8] = tested on: Acinetobacter baumannii; assay: Antimicrobial activity against ISAba1 linked with the blaOXA-51-type beta-lactamase harboring Acinetobacter baumannii alpha clonal group isolate 6 expressing ampC, ompA, adeB, adeM, aacC1, aadA1 by Etest method
[9] = tested on: Acinetobacter baumannii; assay: Antimicrobial activity against ISAba1 linked with the blaOXA-51-type beta-lactamase harboring Acinetobacter baumannii lambda clonal group isolate 30 expressing ampC, ompA, adeB, adeM, aadB, aadA1 by Etest method
[10] = tested on: Acinetobacter baumannii; assay: Antimicrobial activity against ISAba1 linked with the blaOXA-51-type beta-lactamase harboring Acinetobacter baumannii zeta clonal group isolate 22 expressing ampC, ompA, adeB, adeM, aadA1, aacA4, aacC2, blaSHV-5 by Etest method
[11] = tested on: Acinetobacter baumannii; assay: Antimicrobial activity against ISAba1 linked with the blaOXA-51-type beta-lactamase harboring Acinetobacter baumannii zeta clonal group isolate 23 expressing ampC, ompA, adeB, adeM, aadA1, aacA4, aacC2, aphA6 by Etest method
[12] = tested on: Acinetobacter baumannii; assay: Antimicrobial activity against Acinetobacter baumannii unique clonal group isolate 37 expressing ampC, ompA, adeB, adeM by Etest method
[13] = tested on: Acinetobacter baumannii; assay: Antimicrobial activity against Acinetobacter baumannii nu clonal group isolate 34 expressing ampC, ompA, adeB, adeM by Etest method
[14] = tested on: Acinetobacter baumannii; assay: Antimicrobial activity against ISAba1 linked with the blaOXA-51-type beta-lactamase harboring Acinetobacter baumannii lambda clonal group isolate 29 expressing ampC, ompA, adeM, aadB, aadA1 by Etest method
[15] = tested on: Acinetobacter baumannii; assay: Antimicrobial activity against Acinetobacter baumannii alpha clonal group isolate 4 expressing ampC, ompA, adeB, adeM, aacC1, aadA1 by Etest method
[16] = tested on: Acinetobacter baumannii; assay: Antimicrobial activity against ISAba1 linked with the blaOXA-51-type beta-lactamase harboring Acinetobacter baumannii lambda clonal group isolate 28 expressing ampC, ompA, adeM, aadB, aadA1 by Etest method
[17] = tested on: Acinetobacter baumannii; assay: Antimicrobial activity against ISAba1 linked with the blaOXA-51-type beta-lactamase harboring Acinetobacter baumannii alpha clonal group isolate 1 expressing ampC, ompA, adeB, adeM by Etest method
[18] = tested on: Acinetobacter baumannii; assay: Antimicrobial activity against ISAba1 linked with the blaOXA-51-type beta-lactamase harboring Acinetobacter baumannii zeta clonal group isolate 21 expressing ampC, ompA, adeB, adeM, aacC2, blaSHV-5 by Etest method
[19] = tested on: Acinetobacter baumannii; assay: Antimicrobial activity against Acinetobacter baumannii eta clonal group isolate 35 expressing ampC, ompA, adeB, adeM by Etest method
[20] = tested on: Acinetobacter baumannii; assay: Antimicrobial activity against ISAba1 linked with the blaOXA-51-type beta-lactamase harboring Acinetobacter baumannii alpha clonal group isolate 8 expressing ampC, ompA, adeB, adeM, aacC1, aadA1 by Etest method
[21] = tested on: Acinetobacter baumannii; assay: Antimicrobial activity against Acinetobacter baumannii unique clonal group isolate 39 expressing ampC, ompA, adeM by Etest method
[22] = tested on: Acinetobacter baumannii; assay: Antimicrobial activity against ISAba1 linked with the blaOXA-51-type beta-lactamase harboring Acinetobacter baumannii beta clonal group isolate 10 expressing ompA, adeB, adeM, aacA4, blaSHV-5 by Etest method
[23] = tested on: Acinetobacter baumannii; assay: Antimicrobial activity against Acinetobacter baumannii nu clonal group isolate 33 expressing ampC, ompA, adeB, adeM by Etest method
[24] = tested on: Acinetobacter baumannii; assay: Antimicrobial activity against Acinetobacter baumannii eta clonal group isolate 36 expressing ampC, ompA, adeB, adeM by Etest method
[25] = tested on: Acinetobacter baumannii; assay: Antimicrobial activity against Acinetobacter baumannii unique clonal group isolate 38 expressing ampC, ompA, adeB, adeM by Etest method
[26] = tested on: Acinetobacter baumannii; assay: Antimicrobial activity against ISAba1 linked with the blaOXA-51-type beta-lactamase harboring Acinetobacter baumannii zeta clonal group isolate 24 expressing ampC, ompA, adeB, adeM, aadA1, aacA4, aacC2, blaSHV-5 by Etest method
[27] = tested on: Acinetobacter baumannii; assay: Antimicrobial activity against Acinetobacter baumannii alpha clonal group isolate 5 expressing ampC, ompA, adeB, adeM, aacC1, aadA1 by Etest method
[28] = tested on: Acinetobacter baumannii; assay: Antimicrobial activity against ISAba1 linked with the blaOXA-51-type beta-lactamase harboring Acinetobacter baumannii beta clonal group isolate 14 expressing ompA, adeB, adeM, aacA4, blaSHV-5 by Etest method
[29] = tested on: Acinetobacter baumannii; assay: Antimicrobial activity against ISAba1 linked with the blaOXA-51-type beta-lactamase harboring Acinetobacter baumannii zeta clonal group isolate 20 expressing ampC, ompA, adeB, adeM, aacC2 by Etest method
[30] = tested on: Acinetobacter baumannii; assay: Antimicrobial activity against Acinetobacter baumannii alpha clonal group isolate 3 expressing ampC, ompA, adeB, adeM, aacC1, aadA1 by Etest method
[31] = tested on: Acinetobacter baumannii; assay: Antimicrobial activity against ISAba1 linked with the blaOXA-51-type beta-lactamase harboring Acinetobacter baumannii beta clonal group isolate 13 expressing ompA, adeB, adeM, aacA4, blaSHV-5 by Etest method
[32] = tested on: Acinetobacter baumannii; assay: Antimicrobial activity against ISAba1 linked with the blaOXA-51-type beta-lactamase harboring Acinetobacter baumannii zeta clonal group isolate 26 expressing ampC, ompA, adeB, adeM, aadA1, aacA4, aacC2, blaSHV-5 by Etest method
[33] = tested on: Acinetobacter baumannii; assay: Antimicrobial activity against ISAba1 linked with the blaOXA-51-type beta-lactamase harboring Acinetobacter baumannii beta clonal group isolate 11 expressing ompA, adeB, adeM, blaSHV-5 by Etest method
[34] = tested on: Acinetobacter baumannii; assay: Antimicrobial activity against ISAba1 linked with the blaOXA-51-type beta-lactamase harboring Acinetobacter baumannii zeta clonal group isolate 19 expressing ampC, ompA, adeB, adeM, aacC2 by Etest method
[35] = tested on: Acinetobacter baumannii; assay: Antimicrobial activity against ISAba1 linked with the blaOXA-51-type beta-lactamase harboring Acinetobacter baumannii zeta clonal group isolate 25 expressing ampC, ompA, adeB, adeM, aadA1, aacA4, aacC2, blaSHV-5 by Etest method
[36] = tested on: Acinetobacter baumannii; assay: Antimicrobial activity against Acinetobacter baumannii nu clonal group isolate 31 expressing ampC, ompA, adeB, adeM, aadB, aadA2 by Etest method
[37] = tested on: Acinetobacter baumannii; assay: Antimicrobial activity against ISAba1 linked with the blaOXA-51-type beta-lactamase harboring Acinetobacter baumannii alpha clonal group isolate 7 expressing ampC, ompA, adeB, adeM, blaSHV-5 by Etest method
[38] = tested on: Acinetobacter baumannii; assay: Antimicrobial activity against ISAba1 linked with the blaOXA-51-type beta-lactamase harboring Acinetobacter baumannii beta clonal group isolate 18 expressing ompA, adeB, adeM, aacA4, blaSHV-5 by Etest method
[39] = tested on: Acinetobacter baumannii; assay: Antimicrobial activity against Acinetobacter baumannii alpha clonal group isolate 2 expressing ampC, ompA, adeB, adeM, aacC1, aadA1 by Etest method
[40] = tested on: Acinetobacter baumannii; assay: Antimicrobial activity against ISAba1 linked with the blaOXA-51-type beta-lactamase harboring Acinetobacter baumannii beta clonal group isolate 17 expressing ompA, adeB, adeM, aacA4, blaSHV-5 by Etest method

CN(C)c1cc(NC(=O)CNC(C)(C)C)c(O)c2c1C[C@H]1C[C@H]3[C@H](N(C)C)C(O)=C(C(N)=O)C(=O)[C@@]3(O)C(O)=C1C2=O [TIGECYCLINE]
MIC [1]: 0.5 µg/mL (≈ 0.854 µM)
MIC [2]: 0.5 µg/mL (≈ 0.854 µM)
MIC [3]: 0.19 µg/mL (≈ 0.324 µM)
MIC [4]: 3 µg/mL (≈ 5.12 µM)
MIC [5]: 1 µg/mL (≈ 1.71 µM)
MIC [6]: 0.5 µg/mL (≈ 0.854 µM)
MIC [7]: 0.75 µg/mL (≈ 1.28 µM)
MIC [8]: 0.75 µg/mL (≈ 1.28 µM)
MIC [9]: 2 µg/mL (≈ 3.41 µM)
MIC [10]: 2 µg/mL (≈ 3.41 µM)
MIC [11]: 1.5 µg/mL (≈ 2.56 µM)
MIC [12]: 0.25 µg/mL (≈ 0.427 µM)
MIC [13]: 0.5 µg/mL (≈ 0.854 µM)
MIC [14]: 0.19 µg/mL (≈ 0.324 µM)
MIC [15]: 1 µg/mL (≈ 1.71 µM)
MIC [16]: 0.19 µg/mL (≈ 0.324 µM)
MIC [17]: 1 µg/mL (≈ 1.71 µM)
MIC [18]: 1.5 µg/mL (≈ 2.56 µM)
MIC [19]: 0.25 µg/mL (≈ 0.427 µM)
MIC [20]: 2 µg/mL (≈ 3.41 µM)
MIC [21]: 0.25 µg/mL (≈ 0.427 µM)
MIC [22]: 1 µg/mL (≈ 1.71 µM)
MIC [23]: 0.5 µg/mL (≈ 0.854 µM)
MIC [24]: 0.25 µg/mL (≈ 0.427 µM)
MIC [25]: 0.09 µg/mL (≈ 0.154 µM)
MIC [26]: 1 µg/mL (≈ 1.71 µM)
MIC [27]: 1 µg/mL (≈ 1.71 µM)
MIC [28]: 0.5 µg/mL (≈ 0.854 µM)
MIC [29]: 0.75 µg/mL (≈ 1.28 µM)
MIC [30]: 1 µg/mL (≈ 1.71 µM)
MIC [31]: 0.5 µg/mL (≈ 0.854 µM)
MIC [32]: 1 µg/mL (≈ 1.71 µM)
MIC [33]: 1 µg/mL (≈ 1.71 µM)
MIC [34]: 0.75 µg/mL (≈ 1.28 µM)
MIC [35]: 1 µg/mL (≈ 1.71 µM)
MIC [36]: 0.5 µg/mL (≈ 0.854 µM)
MIC [37]: 0.75 µg/mL (≈ 1.28 µM)
MIC [38]: 3 µg/mL (≈ 5.12 µM)
MIC [39]: 1 µg/mL (≈ 1.71 µM)
MIC [40]: 0.5 µg/mL (≈ 0.854 µM)
